Results published in patent publication US12458695B2, “Dosing regimens and related compositions and methods” (Apellis Pharmaceuticals, Inc., priority 2017, dated 2025).

System: alternative pathway-mediated erythrocyte lysis
Assay: not given
Settings: alternative pathway-mediated erythrocyte lysis assay (WO2004/026328); cited from earlier work
In the case of CC[C@H](C)[C@H](N)C(=O)N[C@H]1CSSC[C@@H](C(=O)N[C@H](C(N)=O)[C@@H](C)O)NC(=O)[C@H](CCCN=C(N)N)NC(=O)[C@H](Cc2cnc[nH]2)NC(=O)[C@H](Cc2cnc[nH]2)NC(=O)CNC(=O)[C@H](Cc2c[nH]c3ccccc23)NC(=O)[C@H](CC(=O)O)NC(=O)[C@H](CCC(N)=O)NC(=O)[C@H](C(C)C)NC(=O)[C@H](C(C)C)NC1=O [Compstatin], the IC50 is listed as 12 µM.

System: complement activation
Assay: not given
Settings: relative to compstatin amidated at the C-terminus; published data; cited from earlier work
In the case of Ac-ICVVQDWGHHRCT-CONH2 [Ac-compstatin], the Activity over compstatin is listed as 3xmore. For “Ac-ICV(Bta)QDWGAHRCT-COOH [Ac-V4(Bta)/H9A-OH]”, the Activity over compstatin is given as 65xmore. For “Ac-ICV(2-Nal)QDWGAHRCT-CONH2 [Ac-V4(2-Nal)/H9A]”, the Activity over compstatin is listed as 99xmore. For Ac-ICVYQDWGAHRCT-CONH2 [Ac-V4Y/H9A], the Activity over compstatin is given as 14xmore. For “Ac-ICV(2-Igl)QDWGAHRCT-COOH [Ac-V42Igl/H9A-OH]”, the Activity over compstatin is given as 37xmore. In the case of “Ac-ICV(Bpa)QDWGAHRCT-CONH2 [Ac-V4(Bpa)/H9A]”, the Activity over compstatin is given as 86xmore. For “Ac-ICV(Bta)QDWGAHRCT-CONH2 [Ac-V4(Bta)/H9A]”, the Activity over compstatin is given as 64xmore. For “Ac-ICVWQDWGAHRCdT-COOH [Ac-V4W/H9A/T13dT-OH]”, the Activity over compstatin is listed as 55xmore. In the case of “Ac-ICVDhtQDWGAHRCT-COOH [Ac-V4Dht/H9A-OH]”, the Activity over compstatin is listed as 5xmore. In the case of “Ac-ICV(5-methyl-W)QDWGAHRCT-CONH2 [Ac-V4(5-MeW)/H9A]”, the Activity over compstatin is given as 67xmore. For “Ac-ICV(5fW)QDWGAHRCT-CONH2 [Ac-V4(5fW)/H9A]”, the Activity over compstatin is given as 31xmore. For “Ac-ICV(2-Nal)QDWGAHRCT-COOH [Ac V4(2-Nal)/H9A-OH]”, the Activity over compstatin is listed as 38xmore. In the case of Ac-ICVWQDWGAHRCT-CONH2 [Ac-V4W/H9A], the Activity over compstatin is listed as 45xmore. In the case of “Ac-ICV(1-Nal)QDWGAHRCT-COOH [Ac V4(1-Nal)/H9A-OH]”, the Activity over compstatin is listed as 30xmore. In the case of “H-GICV(6fW)QD(6fW)GAHRCTN-COOH (GICVXQDXGAHRCTN; not fully specified; 6-fluoro-Trp at V4 and W7; SITE 1 N-term H; MOD_RES 5 6-fluoro-L-tryptophan; MOD_RES 8 6-fluoro-L-tryptophan; SITE 15 C-term COOH) [+G/V4(6fW)/W7(6fW)H9A+N-OH]”, the Activity over compstatin is given as 126xmore. For “Ac-ICV(Bpa)QDWGAHRCT-COOH [Ac-V4(Bpa)/H9A-OH]”, the Activity over compstatin is given as 49xmore. For “Ac-ICV(2-Igl)QDWGAHRCT-CONH2 [Ac-V42Igl/H9A]”, the Activity over compstatin is listed as 39xmore.

System: not listed separately
Assay: Inhalation studies, single dose and 14 day repeated dose
Settings: cynomolgus monkey, in vivo, inhaled or intranasal; 14 day repeated dose; read-out: highest inhaled dose tested without drug-related findings
Protocol: Inhalation studies of single dose or repeated dosing were conducted in dog and cynomolgus monkey. […] These doses were 25 mg/kg/d in a 7 day repeated dose study in the dog, 80 mg/kg in a single dose study in the monkey, and 30 mg/kg/day in a 14 day repeated dose in the monkey.
In the case of CC[C@H](C)[C@H](NC(C)=O)C(=O)N[C@H]1CSSC[C@@H](C(=O)N[C@H](C(N)=O)[C@@H](C)O)NC(=O)[C@H](CCCNC(=N)N)NC(=O)[C@H](Cc2cnc[nH]2)NC(=O)[C@H](C)NC(=O)CNC(=O)[C@H](Cc2c[nH]c3ccccc23)NC(=O)[C@H](CC(=O)O)NC(=O)[C@H](CCC(N)=O)NC(=O)[C@H](Cc2cn(C)c3ccccc23)NC(=O)[C@H](C(C)C)NC1=O [CA28], the NOAEL at 336 h is reported as 30 mg/kg/day.

System: not listed separately
Assay: Phase 1 single and multiple ascending dose trial of nebulized CA28 in healthy volunteers
Format: in vivo, human
Settings: 30 mg/day inhaled; after 10 days of treatment
Protocol: In the single ascending dose part of the trial, 16 subjects were enrolled in four cohorts of four subjects each.
Four subjects were enrolled in the first cohort of the multiple ascending dose part of the trial. These subjects were to receive 14 consecutive days of treatment with a 60 mg/day dose of the drug. […] The trial was paused and subsequently resumed, with subjects receiving 30 mg/day. […] The trial was then terminated.
Both subjects responded within hours to first-line antibiotic treatment, which is indicative of bacterial pathogenesis. In this trial, subjects were vaccinated against Neisseria meningitides and closely monitored for signs of infections. While the bacterial cultures were all negative, it is believed that Haemophilus influenzae or Streptococcus pneumoniae might have been implicated in the episodes of fever that were observed because C3 deficient individuals are known to be at increased risk of infection with Neisseria meningitidis, Haemophilus influenzae and Streptococcus pneumoniae. Vaccines against these three pathogens are available, and it is believed that the risk of infection can be addressed by vaccination, potentially with addition of prophylactic antibiotics (e.g., penicillin V).
In the case of CC[C@H](C)[C@H](NC(C)=O)C(=O)N[C@H]1CSSC[C@@H](C(=O)N[C@H](C(N)=O)[C@@H](C)O)NC(=O)[C@H](CCCNC(=N)N)NC(=O)[C@H](Cc2cnc[nH]2)NC(=O)[C@H](C)NC(=O)CNC(=O)[C@H](Cc2c[nH]c3ccccc23)NC(=O)[C@H](CC(=O)O)NC(=O)[C@H](CCC(N)=O)NC(=O)[C@H](Cc2cn(C)c3ccccc23)NC(=O)[C@H](C(C)C)NC1=O [CA28], the “adverse event possibly related to pharmacology” value is reported as “Another subject developed signs and symptoms consistent with a potential bacterial infection”.

Same assay, conditions: 60 mg/day inhaled; following nine days of treatment
In the case of CC[C@H](C)[C@H](NC(C)=O)C(=O)N[C@H]1CSSC[C@@H](C(=O)N[C@H](C(N)=O)[C@@H](C)O)NC(=O)[C@H](CCCNC(=N)N)NC(=O)[C@H](Cc2cnc[nH]2)NC(=O)[C@H](C)NC(=O)CNC(=O)[C@H](Cc2c[nH]c3ccccc23)NC(=O)[C@H](CC(=O)O)NC(=O)[C@H](CCC(N)=O)NC(=O)[C@H](Cc2cn(C)c3ccccc23)NC(=O)[C@H](C(C)C)NC1=O [CA28], the “adverse event possibly related to pharmacology” value is reported as “one subject developed signs and symptoms consistent with a potential bacterial infection”.

Same assay, conditions: single inhaled dose 20, 60, 150 or 350 mg
With CC[C@H](C)[C@H](NC(C)=O)C(=O)N[C@H]1CSSC[C@@H](C(=O)N[C@H](C(N)=O)[C@@H](C)O)NC(=O)[C@H](CCCNC(=N)N)NC(=O)[C@H](Cc2cnc[nH]2)NC(=O)[C@H](C)NC(=O)CNC(=O)[C@H](Cc2c[nH]c3ccccc23)NC(=O)[C@H](CC(=O)O)NC(=O)[C@H](CCC(N)=O)NC(=O)[C@H](Cc2cn(C)c3ccccc23)NC(=O)[C@H](C(C)C)NC1=O [CA28] the safety and tolerability was “well tolerated and no serious adverse events were reported”.
